Read-outs that look alike come from different tables or passages of the source.
Legend:
Klebsiella pneumoniae [1] = test system: Klebsiella pneumoniae
Text: (§1) Biocidal effectiveness of the rebonded carpet pad 12 and/or film 18 according the present invention may be determined by measuring inhibition of growth of bacterial and/or fungus using AATCC (American Association of Textile Chemists and Colorists) 174, ASTM E2180-1, and ASTM D 3273 test protocols compared to non-treated control standards. The AATCC 174 protocol was developed for determining the antimicrobial activity of new carpet materials.
(§2) A number of specimens of carpet underlay 10 were made by methods described above, with various concentrations of zinc pyrithione in the binder 16 and film 18 for testing to determine levels that provide an effective antimicrobial effect. The specimens included a film 18 on one side as illustrated in FIG. 1. This allowed testing of the foam side of the specimens to indicate antimicrobial effect of the pad 12 without film 18 and testing of the film side to indicate antimicrobial effect of the pad 12 with film 18. The AATCC 174 test method provides for testing both unwashed and washed samples. Washed samples were treated according to the AATCC 138 protocol.
(§3) The AATCC 174 test method includes three parts. Part I is a qualitative test for antibacterial activity. Test specimens are placed into contact with a nutrient agar which has been streaked with a bacterial culture. The specimens are then incubated. After incubation, a clear area of interrupted growth underneath and along the sides of the test specimen indicates antibacterial activity of the specimen. Standard strains of bacteria are used, with Staphylococcus aureus and Klebsiella pneumoniae being the representative organisms.

Staphylococcus aureus [2] = conditions: unwashed foam side specimen with 751 ppm of zinc pyrithione
Text: as §1, §2, §3

Klebsiella pneumoniae [3] = test system: Klebsiella pneumoniae; remark: listed apart in the source
Text: as §1, §2
(§4) The AATCC 174, Part II test provides a quantitative procedure for the evaluation of the degree of antibacterial activity. Test specimens are inoculated with the test microorganisms. After incubation, the bacteria are eluted from specimens by shaking in 100 milliliters of liquid. The number of bacteria present in the liquid is determined and the percent reduction produced by the specimen is calculated.

Staphylococcus aureus [4] = test system: Staphylococcus aureus
Text: as §1, §2, §4

Aspergillus niger [5] = conditions: 28 degrees C., seven days
Text: as §1, §2

Aspergillus niger [6] = test system: Aspergillus niger
Procedure: as §1
Inhibitory mold activity was also tested by the ASTM E2180-01 test method. […] The total combined concentration is the sum of the concentration in the pad 12 of a specimen and the concentration in the film 18 of the specimen.

Aspergillus niger [7] = conditions: film side specimens, total minimum combined concentration (pad + film) of about 1600 ppm
Text: as §1

[8] = washed foam side specimen containing 751 ppm of zinc pyrithione
[9] = washed foam side specimen containing 1096 ppm of zinc pyrithione
[10] = all unwashed and washed film and foam side specimens, 500 ppm or more in the film and 1096 ppm in the pad

**Q.** What does the source list for [O-]n1ccccc1=S.[O-]n1ccccc1=S.[Zn+2] [zinc pyrithione, Bis(1-hydroxy-2(1H)-pyridinethionato-O,S)-(T-4)Zinc]?
**A.** growth of Klebsiella pneumoniae underneath and along the sides of the specimen (Klebsiella pneumoniae [1]; all unwashed and washed foam side specimens with 1096 ppm or more of zinc pyrithione): inhibited the growth; zone of inhibition for Klebsiella pneumoniae (Klebsiella pneumoniae [1]; unwashed foam side specimen with 751 ppm of zinc pyrithione): one; zone of inhibition for Staphylococcus aureus (Staphylococcus aureus [2]): two; reduction in the numbers of Klebsiella pneumoniae (Klebsiella pneumoniae [3]; [8]): 90%; reduction in the numbers of Klebsiella pneumoniae (Klebsiella pneumoniae [3]; [9]): 90%; average reduction in Staphylococcus aureus (Staphylococcus aureus [4]; [10]): 92%; reduction in Staphylococcus aureus (minimum over specimens) (Staphylococcus aureus [4]; [10]): at least 66%; reduction in the numbers of Staphylococcus aureus (Staphylococcus aureus [4]; [8]): 90%; reduction in the numbers of Staphylococcus aureus (Staphylococcus aureus [4]; [9]): 90%; fungus growth (Aspergillus niger) (Aspergillus niger [5]; washed and unwashed film side samples, 1500 ppm or greater of zinc pyrithione in the film): No growth was observed; fungus growth (Aspergillus niger) (Aspergillus niger [5]; washed and unwashed foam side samples, 1096 ppm of zinc pyrithione in the pad): no observable fungus growth; inhibitory activity for Aspergillus niger (Aspergillus niger [6]; film side specimens, total minimum combined concentration (pad + film) of 1600 ppm): Good inhibitory activity; inhibitory activity for Aspergillus niger (Aspergillus niger [6]; total combined concentration of 1251 ppm, i.e. 751 ppm in the pad and 500 ppm in the film): Good results were achieved for some, but not all, specimens; Aspergillus niger mold colonization (Aspergillus niger [7]): No Aspergillus niger mold colonization was observed

Source: patent US7875343B2, “Anti-microbial carpet underlay and method of making” (L & P Property Management Company, priority 2003, dated 2011)
